Experiments:
neosubstrate degradation = conditions: more potent in cells than lenalidomide; see Ref. 13; cited from earlier work
hGSPT1 = target: T1, hGSPT1 (Homo sapiens, UniProt P15170+Q96SW2); assay: hGSPT1 HiBiT assay (level of GSPT1 HiBiT tag protein, Nano-Glo HiBiT Lytic Detection); format: cell-based; conditions: HEK293 hGSPT1 HiBiT tag cells, 4 hrs incubation
T1 construct: host or cells: HEK293
Procedure: HEK293 hGSPT1 HiBiT tag cells were seeded in white 384-well assay plates at density of 800 cells per well in triplicates. After overnight incubation, cells were treated with compounds in dose-response format using a Pintool on a Biomek FXP Laboratory Automation Workstation (Beckman Coulter). After 4 hrs incubation, the level of GSPT1 HiBiT tag protein was evaluated using Nano-Glo® HiBiT Lytic Detection System (Promega) according to the manufacturer's instruction. Luminescence signal was measured using an Envision plate reader (Perkin-Elmer).

MHHCALL4 cells = assay: Cell proliferation assay (Cell Titer-Glo), MHH-CALL-4 cells; format: cell-based, human; conditions: 72 h incubation; for EC50: Homo sapiens
Procedure: (§1) MV-4-11 cell line was purchased from the American Type Culture Collection (ATCC, Manassas, VA) and maintained in Iscove's Modified Dulbecco's medium (IMDM; (ATCC) supplemented with 10% FBS. MHHCALL4 cell line was purchased from the German Collection of Microorganisms and Cell Cultures GmbH (DSMZ) and maintained in RPMI 1640 medium supplemented with 10% fetal bovine serum (HyClone), penicillin/streptomycin (100 U/mL), and glutamine ([…]) at 37° C. in a humidified 5% C02 incubator. Exponentially growing MV-4-11 cells were plated at 1250 cells per well and MHH-CALL-4 cells were plated at 7,500 cells per well in Corning 8804BC white 384-well assay plates and incubated overnight at 37° C. in a humidified 5% CO2 incubator. Compounds were transferred to the assay plate from a dose-response plate using a Pintool on a Biomek FXP Laboratory Automation Workstation (Beckman Coulter). Cytotoxicity was determined following 72 hours of incubation using Promega Cell Titer Glo reagent according to the manufacturer's recommendation. Luminescence was measured on an Envision plate reader (Perkin-Elmer).
(§2) Compounds were screened in human cancer cell lines and each cell line was cultured in the complete medium recommended by the vendor and seeded in Corning 8804BC white 384-well assay plates at density of 1250 cells per well for MV-4-11 cells and of 7,500 cells per well for MHH-CALL-4 cells. After overnight incubation at 37° C. in a humidified 5% CO2 incubator, cells were treated with compounds in dose-response format using a Pintool on a Biomek FXP Laboratory Automation Workstation (Beckman Coulter). After 72 h incubation, cell proliferation was assessed using Cell Titer-Gbo (CTG) luminescent cell viability assay (Promega) according to the manufacturer's instruction. Luminescence signal was measured using an Envision plate reader (Perkin-Elmer).

MV-4-11 cells = assay: Cell proliferation assay (Cell Titer-Glo), MV-4-11 cells; format: cell-based; conditions: Homo sapiens, MV4-11; MV411 cells, 72 h incubation
Procedure: as §1, §2

T1 sequence (P15170 whole entry): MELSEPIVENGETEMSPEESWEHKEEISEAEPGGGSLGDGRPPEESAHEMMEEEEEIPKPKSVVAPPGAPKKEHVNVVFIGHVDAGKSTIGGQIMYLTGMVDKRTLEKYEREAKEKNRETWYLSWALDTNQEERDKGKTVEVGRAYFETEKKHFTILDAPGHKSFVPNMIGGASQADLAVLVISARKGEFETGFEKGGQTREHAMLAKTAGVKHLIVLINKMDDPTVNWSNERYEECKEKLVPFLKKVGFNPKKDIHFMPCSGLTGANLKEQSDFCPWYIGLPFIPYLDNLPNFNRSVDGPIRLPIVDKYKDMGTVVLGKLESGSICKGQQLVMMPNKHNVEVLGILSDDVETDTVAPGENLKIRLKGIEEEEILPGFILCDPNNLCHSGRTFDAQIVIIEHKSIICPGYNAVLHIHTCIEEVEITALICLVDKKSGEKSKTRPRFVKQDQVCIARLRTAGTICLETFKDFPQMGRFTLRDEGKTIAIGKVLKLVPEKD
T1 sequence (Q96SW2 whole entry): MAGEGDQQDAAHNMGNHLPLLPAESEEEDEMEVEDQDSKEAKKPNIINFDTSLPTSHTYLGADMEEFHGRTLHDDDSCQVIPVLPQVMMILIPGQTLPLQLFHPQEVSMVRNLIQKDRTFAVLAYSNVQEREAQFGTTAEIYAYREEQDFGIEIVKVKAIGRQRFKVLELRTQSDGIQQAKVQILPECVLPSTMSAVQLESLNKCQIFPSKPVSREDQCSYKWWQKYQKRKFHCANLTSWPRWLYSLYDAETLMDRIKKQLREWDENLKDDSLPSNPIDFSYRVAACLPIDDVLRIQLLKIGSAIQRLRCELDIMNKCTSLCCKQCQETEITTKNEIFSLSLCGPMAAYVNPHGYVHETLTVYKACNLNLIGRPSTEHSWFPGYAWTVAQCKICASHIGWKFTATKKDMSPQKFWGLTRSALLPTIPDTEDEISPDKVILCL
T1 sequence (Q16531 whole entry partner): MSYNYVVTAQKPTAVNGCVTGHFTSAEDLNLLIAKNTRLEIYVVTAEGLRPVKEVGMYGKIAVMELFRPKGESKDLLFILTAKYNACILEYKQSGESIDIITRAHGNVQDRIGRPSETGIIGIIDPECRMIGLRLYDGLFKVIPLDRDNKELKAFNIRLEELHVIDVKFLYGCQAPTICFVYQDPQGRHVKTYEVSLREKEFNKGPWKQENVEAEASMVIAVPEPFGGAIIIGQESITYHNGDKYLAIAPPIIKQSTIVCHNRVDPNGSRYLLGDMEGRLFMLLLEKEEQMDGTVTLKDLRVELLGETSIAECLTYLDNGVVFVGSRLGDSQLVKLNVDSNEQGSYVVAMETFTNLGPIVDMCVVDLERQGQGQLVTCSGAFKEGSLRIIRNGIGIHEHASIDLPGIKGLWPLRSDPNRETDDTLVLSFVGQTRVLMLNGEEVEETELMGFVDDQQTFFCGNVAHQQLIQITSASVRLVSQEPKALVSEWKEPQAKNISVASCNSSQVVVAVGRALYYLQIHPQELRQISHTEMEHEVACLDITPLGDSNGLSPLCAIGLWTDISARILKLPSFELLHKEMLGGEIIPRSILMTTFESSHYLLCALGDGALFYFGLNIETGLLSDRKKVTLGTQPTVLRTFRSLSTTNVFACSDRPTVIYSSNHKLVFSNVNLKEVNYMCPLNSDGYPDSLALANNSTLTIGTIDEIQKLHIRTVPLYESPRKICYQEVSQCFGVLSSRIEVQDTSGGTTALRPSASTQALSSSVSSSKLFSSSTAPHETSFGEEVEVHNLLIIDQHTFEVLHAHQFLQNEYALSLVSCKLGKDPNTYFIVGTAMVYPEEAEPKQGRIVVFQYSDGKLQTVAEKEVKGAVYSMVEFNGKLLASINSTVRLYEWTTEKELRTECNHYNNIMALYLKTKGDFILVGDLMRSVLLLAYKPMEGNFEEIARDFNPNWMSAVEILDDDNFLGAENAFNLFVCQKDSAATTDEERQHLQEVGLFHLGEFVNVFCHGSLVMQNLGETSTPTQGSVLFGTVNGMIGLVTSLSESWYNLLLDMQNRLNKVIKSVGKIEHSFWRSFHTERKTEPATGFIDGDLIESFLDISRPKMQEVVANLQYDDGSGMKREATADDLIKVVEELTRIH

| Structure (SMILES) | DC50 (hGSPT1) | EC50 (MV-4-11 cells) | potency in cells relative to lenalidomide (neosubstrate degradation) | EC50 (MHHCALL4 cells) | MHHCALL4 Cell Proliferation Assay, result in words (MHHCALL4 cells; printed in place of an EC50) |
| --- | --- | --- | --- | --- | --- |
| O=C1CC[C@H](N2Cc3c(OCc4ccc(CN5CCOCC5)cc4)cccc3C2=O)C(=O)N1 [CC-220] |  |  | 10 fold |  |  |
| O=C(Cc1ccc2c(c1)CN(C1CCC(=O)NC1=O)C2=O)NCc1ccccc1 (stereo not drawn) [Compound 1] | < 1 nM | < 1 nM |  | < 1 nM |  |
| CCN(C(=O)Cc1ccc2c(c1)CN(C1CCC(=O)NC1=O)C2=O)c1ccccc1 (stereo not drawn) [Compound 3] |  | > 8700 nM |  | > 10700 nM |  |
| COCCNC(=O)Cc1ccc2c(c1)CN(C1CCC(=O)NC1=O)C2=O (stereo not drawn) [Compound 4] |  | > 6700 nM |  | > 8200 nM |  |
| CCN(CC)C(=O)Cc1ccc2c(c1)CN(C1CCC(=O)NC1=O)C2=O (stereo not drawn) [Compound 5] |  | > 1730 nM |  |  |  |
| Cc1ccc(CNC(=O)Cc2ccc3c(c2)CN(C2CCC(=O)NC2=O)C3=O)cc1 (stereo not drawn) [Compound 8] | < 1 nM | < 1 nM |  | < 1 nM |  |
| O=C(Cc1ccc2c(c1)CN(C1CCC(=O)NC1=O)C2=O)NCc1cccc(C(F)(F)F)c1 (stereo not drawn) [Compound 10] | < 1 nM | < 1 nM |  | < 1 nM |  |
| O=C1CCC(N2Cc3cc(CC(=O)N4CCOCC4)ccc3C2=O)C(=O)N1 (stereo not drawn) [Compound 14] | > 2700 nM | > 2200 nM |  | 21 nM |  |
| O=C1CCC(N2Cc3cc(CC(=O)N4CCCCC4)ccc3C2=O)C(=O)N1 (stereo not drawn) [Compound 15] |  | > 8700 nM |  | > 10700 nM |  |
| O=C1CCC(N2Cc3cc(CC(=O)Nc4cccc(Cl)c4)ccc3C2=O)C(=O)N1 (stereo not drawn) [Compound 20] | < 1 nM | 5 nM |  | < 1 nM |  |
| O=C1CCC(N2Cc3cc(CC(=O)Nc4cccc(F)c4)ccc3C2=O)C(=O)N1 (stereo not drawn) [Compound 21] | > 3110 nM | > 4500 nM |  | < 1 nM |  |
| O=C1CCC(N2Cc3cc(CC(=O)Nc4cccc(OCc5ccccc5)c4)ccc3C2=O)C(=O)N1 (stereo not drawn) [Compound 22] | < 1 nM | < 1 nM |  | < 1 nM |  |
| O=C1CCC(N2Cc3cc(CC(=O)Nc4ccc(N5CCCCC5)cc4)ccc3C2=O)C(=O)N1 (stereo not drawn) [Compound 23] | < 1 nM | 2 nM |  | < 1 nM |  |

Continued, in another order:

| DC50 (hGSPT1) | EC50 (MV-4-11 cells) | Structure (SMILES) | potency in cells relative to lenalidomide (neosubstrate degradation) | EC50 (MHHCALL4 cells) | MHHCALL4 Cell Proliferation Assay, result in words (MHHCALL4 cells; printed in place of an EC50) |
| --- | --- | --- | --- | --- | --- |
| > 7100 nM | > 5800 nM | O=C1CCC(N2Cc3cc(CC(=O)NC4CCCCC4)ccc3C2=O)C(=O)N1 (stereo not drawn) [Compound 2] |  |  | cytostatic at 10 nM |
|  | > 6900 nM | CC(C)NC(=O)Cc1ccc2c(c1)CN(C1CCC(=O)NC1=O)C2=O (stereo not drawn) [Compound 6] |  | > 8500 nM |  |
|  | > 8200 nM | O=C(Cc1ccc2c(c1)CN(C1CCC(=O)NC1=O)C2=O)NCC1CC1 (stereo not drawn) [Compound 7] |  | > 10100 nM |  |
| < 1 nM | 3 nM | O=C(Cc1ccc2c(c1)CN(C1CCC(=O)NC1=O)C2=O)NCc1ccc(F)cc1 (stereo not drawn) [Compound 9] |  | < 1 nM |  |
| < 1 nM |  | O=C(Cc1ccc2c(c1)CN(C1CCC(=O)NC1=O)C2=O)NCCc1ccccc1 (stereo not drawn) [Compound 11] |  | < 1 nM |  |
| < 1 nM | 5 nM | O=C(Cc1ccc2c(c1)CN(C1CCC(=O)NC1=O)C2=O)NCc1cccc2ccccc12 (stereo not drawn) [Compound 12] |  | < 1 nM |  |
| < 1 nM | < 1 nM | COc1ccc(NC(=O)Cc2ccc3c(c2)CN(C2CCC(=O)NC2=O)C3=O)cc1 (stereo not drawn) [Compound 13] |  | < 1 nM |  |
| < 1 nM |  | O=C(Cc1ccc2c(c1)CN(C1CCC(=O)NC1=O)C2=O)NCc1ccc(Cl)cc1 (stereo not drawn) [Compound 16] |  | < 1 nM |  |
| > 8100 nM | 744 nM | O=C1CCC(N2Cc3cc(CC(=O)Nc4ccccc4)ccc3C2=O)C(=O)N1 (stereo not drawn) [Compound 17] |  | 4 nM |  |
| > 5970 nM | > 4900 nM | Cc1ccccc1NC(=O)Cc1ccc2c(c1)CN(C1CCC(=O)NC1=O)C2=O (stereo not drawn) [Compound 18] |  | 2 nM |  |
|  | 5 nM | COc1cccc(NC(=O)Cc2ccc3c(c2)CN(C2CCC(=O)NC2=O)C3=O)c1 (stereo not drawn) [Compound 19] |  | < 1 nM |  |

Source: patent US20250034107A1, “SUBSTITUTED 2-(2-(2,6-DIOXOPIPERIDIN-3-YL)-1- OXOISOINDOLIN-5-YL) ACETAMIDE ANALOGS AS MODULATORS OF GSPT1 AND/OR IKZF1 PROTEIN” (St. Jude Children's Research Hospital, Inc., priority 2021, published 2025)
